Data as given in patent US7307097B2, “Chemical compounds” (SmithKline Beechman Corporation, priority 2001, dated 2007).

How the values were obtained:
[1] = tested on: Human umbilical cord endothelial cells (HUVEC); assay: VEGF-driven cellular proliferation assay: BrdU incorporation assay (VEGF-C); format: cell-based; settings: read-out: VEGF-C pIC50 (converted)
Procedure: VEGF-driven Cellular Proliferation Assay: BrdU Incorporation Assay (VEGF-C)
Human umbilical cord endothelial cells (HUVEC, Clonetics, CC2519) are passaged in Type I collagen-coated 100-mm petridishes in EGM-MV medium (Clonetics, CC3125) at 37 C. in a humidified 5% CO2, 95% air incubator. (HUVEC passaged more than 6 times in vitro are discarded and not subjected to assaying.) The cells are harvested using trypsin/EDTA, counted using a haemocytometer and plated at 5000 cells/well in a Type I-collagen coated 96-well plate (Becton Dickinson, 354407) in M199 medium (Gibco BRL, 12340-030) containing 5% FBS (Hyclone, A 1115-L) and gentamicin (at 50 ug/ml, Gibco BRL). After incubation overnight at 37° C., the media are replaced with 100 ul of M199 serum-free medium containing compounds at various concentrations with 0.6% DMSO and gentamicin. The compounds are diluted in serum-free M199 medium from 10 mM stock solutions prepared in 100% DMSO. […] The incorporation of BrdU into the proliferating HUVEC are analyzed using BrdU Cell Proliferation ELISA (Roche Molecular Biochemicals, 1647229) according to the manufacturer's protocols. The optical density at 450 nm is measured with a multilabel counter (ARVO SX, Wallac). The percent inhibition of cell growth is calculated relative to blank control wells. […]

Recombinant GST-Tie2 = Recombinant GST-Tie2 (Homo sapiens, UniProt Q02763); assay: Tie2 fluorescence polarization kinase activity assay (TIE2-FP); format: biochemical; settings: 200 μM ATP, activated enzyme; read-out: TIE2-FP pIC50 (converted)
Chain of Recombinant GST-Tie2 (Q02763 23-1124): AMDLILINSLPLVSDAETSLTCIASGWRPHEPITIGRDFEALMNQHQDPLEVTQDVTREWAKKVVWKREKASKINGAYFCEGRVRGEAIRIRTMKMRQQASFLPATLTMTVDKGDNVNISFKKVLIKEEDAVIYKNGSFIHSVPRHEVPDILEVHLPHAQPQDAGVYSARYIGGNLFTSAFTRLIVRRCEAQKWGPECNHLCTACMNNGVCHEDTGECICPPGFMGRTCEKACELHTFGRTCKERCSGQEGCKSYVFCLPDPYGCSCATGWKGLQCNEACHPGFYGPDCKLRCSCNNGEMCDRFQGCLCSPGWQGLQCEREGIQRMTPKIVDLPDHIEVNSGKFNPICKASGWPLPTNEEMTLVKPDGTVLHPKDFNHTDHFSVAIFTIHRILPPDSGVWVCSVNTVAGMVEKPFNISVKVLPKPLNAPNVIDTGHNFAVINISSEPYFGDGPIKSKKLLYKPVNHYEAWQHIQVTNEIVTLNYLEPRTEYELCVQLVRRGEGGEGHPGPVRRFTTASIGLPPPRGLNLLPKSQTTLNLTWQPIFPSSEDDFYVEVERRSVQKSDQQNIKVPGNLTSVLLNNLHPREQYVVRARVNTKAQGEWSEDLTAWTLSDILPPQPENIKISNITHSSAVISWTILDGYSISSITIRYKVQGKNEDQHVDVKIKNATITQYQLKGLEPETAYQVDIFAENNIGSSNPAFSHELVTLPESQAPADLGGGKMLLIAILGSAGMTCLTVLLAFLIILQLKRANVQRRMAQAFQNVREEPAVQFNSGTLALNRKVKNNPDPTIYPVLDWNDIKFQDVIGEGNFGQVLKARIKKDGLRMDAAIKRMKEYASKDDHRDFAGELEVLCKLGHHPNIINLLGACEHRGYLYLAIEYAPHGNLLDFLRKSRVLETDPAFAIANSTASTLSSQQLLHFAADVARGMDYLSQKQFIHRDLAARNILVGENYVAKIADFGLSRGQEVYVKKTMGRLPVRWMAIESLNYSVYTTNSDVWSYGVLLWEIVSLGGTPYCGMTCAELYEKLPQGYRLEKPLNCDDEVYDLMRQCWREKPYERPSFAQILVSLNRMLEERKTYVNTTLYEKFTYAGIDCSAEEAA
Procedure: Tie2 Fluorescence Polarization Kinase Activity Assay (TIE2-FP) Activation of Recombinant Tie2 Activation: Recombinant GST-Tie2 is activated by incubating the enzyme in 20 mM Tris-HCl, pH7.5, 12 mM MgCl2, 100 mM NaCl, 20 μM sodium vanidate, 1 mM DTT and 300 μM ATP at room temperature for 2 hours. The activation mixture is then passed through a NAP-25 desalting column (Pharmacia Biotech cat. no. 17-0852-02) to remove the free ATP. The activated enzyme is stored as aliquots at−80° C. in 20mM Tris-HCl, pH7.5 and 100 mM NaCl. Assay Conditions: The final assay conditions are 50 mM HEPES, pH7.5, 5% DMSO (when screening compounds), 200 μM ATP, 5mM MgCl2, 1 mM DTT, 50 μM sodium vanidate, 1 nM activated enzyme, and 200 μM peptide. IC50's of compounds are measured under subsaturating ATP (200 μM) and varing concentrations of activated Tie2 and peptide substrate (RFWKYEFWR-OH; MW 1873 Da, TFA salt). Panvera Anti-phosphotyrosine antibody (Cat#P2840) and PTK Green Tracer (Cat#P2842) are used to detect the phosphorylated peptide. Polarization is measured on a TECAN Polarion in 138-second cycles for 30 minutes at room temperature. IC50's are then determined from the % polarization using normal calculation methods. The IC50 values are converted to pIC50 values, i.e.,−log IC50 in Molar concentration.

GST-VEGFR2 = target: T1, GST-VEGFR2 (Homo sapiens, UniProt P35968); assay: VEGF-R2 enzyme assay (VEGFR-2-E2), LANCE method; format: biochemical; settings: 75 uM ATP
T1 construct: recombinant constructs of the intracellular domains of human TIE2 tagged by GST; made in house
T1 sequence (P35968 786-1356 limits assumed): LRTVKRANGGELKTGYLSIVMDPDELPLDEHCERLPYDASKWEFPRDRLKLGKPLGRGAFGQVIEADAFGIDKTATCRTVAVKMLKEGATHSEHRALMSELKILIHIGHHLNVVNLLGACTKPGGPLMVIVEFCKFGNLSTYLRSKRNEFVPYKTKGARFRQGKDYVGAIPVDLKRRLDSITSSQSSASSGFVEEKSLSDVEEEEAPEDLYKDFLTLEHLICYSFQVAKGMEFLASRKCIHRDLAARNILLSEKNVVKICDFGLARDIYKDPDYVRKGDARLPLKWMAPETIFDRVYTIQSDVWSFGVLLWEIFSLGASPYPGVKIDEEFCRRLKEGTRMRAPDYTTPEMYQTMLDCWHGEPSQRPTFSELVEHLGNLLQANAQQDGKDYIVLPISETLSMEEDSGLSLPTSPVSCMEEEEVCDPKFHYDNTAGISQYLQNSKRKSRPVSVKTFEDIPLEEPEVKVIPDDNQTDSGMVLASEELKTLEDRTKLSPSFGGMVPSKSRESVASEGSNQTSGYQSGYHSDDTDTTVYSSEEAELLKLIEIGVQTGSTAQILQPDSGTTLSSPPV
From the text: VEGF-R2 Enzyme Assay (VEGFR-2-E2)
The VEGF enzyme assay uses the LANCE method (Wallac) and GST-VEGFR2, baculovirus expressed recombinant constructs of the intracellular domains of […] tagged by GST. The method measures the ability of the purified enzymes to catalyse the transfer of the γ-phosphate from ATP onto tyrosine residues in a biotinylated synthetic peptide, (biotin-aminohexyl-EEEEYFELVAKKKK-NH2). This peptide phosphorylation is detected using the following procedure: GST-VEGFR2 is incubated for 40-60 mins at room temperature with 75 uM ATP, 5 mM MgCl2, 0.1 mM DTT, 0.1 mg/mL BSA and the test compound (diluted from a 10 mM stock in DMSO for desired concentration) in 100 mM HEPES buffer. The reaction is stopped by the addition of EDTA (final concentration 50 mM). Streptavidin linked-APC (allophycocyanin, Molecular Probe) and Europium-labeled anti-phosphorylated tyrosine antibody (Wallac) are then added at the final concentration of 15 nM and 1 nM, respectively. The APC signal is measured using an ARVO multilabel counter (Wallac Berthold, Japan). The percent inhibition of activity is calculated relative to blank control wells. The concentration of test compound that inhibits 50% of activity (IC50) is interpolated using nonlinear regression (Levernberg-Marquardt) and the equation, y=Vmax (1−x/(K+x))+Y2, where “K” is equal to the IC50. […]

[2] = target: T2, human VEGFR3 catalytic domain (Homo sapiens, UniProt P35916, H890Q); assay: VEGFR-3 homogenous time-resolved fluorescence assay (VEGFR-3-HTRF); format: biochemical; settings: 75 μM ATP, 1 nM enzyme
T2 construct: made in house; host or cells: Sf9 insect cells (baculovirus, pFastBac1)
T2 sequence (P35916 with tags, fused parts or gaps isoform P35916-1 H890Q): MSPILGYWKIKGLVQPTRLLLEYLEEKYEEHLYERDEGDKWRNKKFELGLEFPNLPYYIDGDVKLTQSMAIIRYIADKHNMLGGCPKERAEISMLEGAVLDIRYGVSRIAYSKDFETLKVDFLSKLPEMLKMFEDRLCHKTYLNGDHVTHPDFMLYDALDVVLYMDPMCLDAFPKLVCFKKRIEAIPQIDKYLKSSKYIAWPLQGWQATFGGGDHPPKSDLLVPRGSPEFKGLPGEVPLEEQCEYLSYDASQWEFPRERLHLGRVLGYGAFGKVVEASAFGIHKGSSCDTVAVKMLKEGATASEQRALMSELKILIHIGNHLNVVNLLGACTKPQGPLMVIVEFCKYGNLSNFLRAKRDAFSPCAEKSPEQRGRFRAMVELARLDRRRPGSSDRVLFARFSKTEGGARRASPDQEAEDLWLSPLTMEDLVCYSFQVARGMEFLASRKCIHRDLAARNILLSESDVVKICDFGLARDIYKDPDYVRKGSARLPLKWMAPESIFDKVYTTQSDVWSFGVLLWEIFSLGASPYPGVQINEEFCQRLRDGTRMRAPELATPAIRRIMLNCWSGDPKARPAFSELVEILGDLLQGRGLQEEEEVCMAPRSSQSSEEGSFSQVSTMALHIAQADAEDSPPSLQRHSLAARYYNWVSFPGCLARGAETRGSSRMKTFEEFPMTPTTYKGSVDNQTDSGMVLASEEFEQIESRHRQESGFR
From the text: VEGFR-3—Homogenous Time-resolved Fluorescence Assay (VEGFR-3-HTRF)
This assay assesses Vascular Endothelial Growth Factor 3 (VEGFR3) tyrosine kinase inhibitory activity in substrate phosphorylation assays. The assay examines the ability of small molecule organic compounds to inhibit the tyrosine phosphorylation of a peptide substrate.
The substrate phosphorylation assays use the VEGFR3 catalytic domain, which is expressed in Sf. 9 insect cells as an amino-terminal GST-tagged fusion protein. The catalytic domain of human VEGFR3 (AA residues #819-1298 based upon GenBank Accession #XM003852) is cloned by PCR from human Placenta Marathon Ready cDNA (Clontech). The PCR product is subcloned into pFastBac1 vector containing an N-terminal GST tag. […]
200 nM VEGFR3 enzyme is activated for 45 minutes at room temperature by incubating the enzyme in buffer containing 100 mM HEPES (pH7.2), 75 μM ATP, 0.3 mM DTT, 0.1 mg/mL BSA, and 10 mM MgCl2. […] Assay plates are left unsealed and are counted in a Wallac Multilabel Counter 1420 (PerkinElmer).
The data for dose responses are plotted as % Control calculated with the data reduction formula 100*(U1-C2)/(C1-C2) versus concentration of compound where U is the unknown value, C1 is the average control value obtained for DMSO, and C2 is the average control value obtained for 0.1M EDTA. […]

[3] = target: T3, GST-TIE2 (intracellular domains of human TIE2) (Homo sapiens, UniProt Q02763); assay: TIE-2 enzyme assay (TIE-2-E2); format: biochemical
T3 construct: made in house
T3 sequence (Q02763 762-1104): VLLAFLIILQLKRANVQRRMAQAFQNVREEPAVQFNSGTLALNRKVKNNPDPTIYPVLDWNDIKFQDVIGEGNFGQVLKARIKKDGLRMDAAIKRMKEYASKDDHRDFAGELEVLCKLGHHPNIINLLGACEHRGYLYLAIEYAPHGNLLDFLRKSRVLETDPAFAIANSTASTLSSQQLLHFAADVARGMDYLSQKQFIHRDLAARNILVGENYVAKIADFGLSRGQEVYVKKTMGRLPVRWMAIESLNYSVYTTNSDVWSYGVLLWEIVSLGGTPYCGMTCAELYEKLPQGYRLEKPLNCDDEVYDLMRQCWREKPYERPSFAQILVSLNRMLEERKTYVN
From the text: TIE-2 Enzyme Assay (TIE2-E)
The TIE-2 enzyme assay uses the LANCE method (Wallac) and GST-TIE2, baculovirus expressed recombinant constructs of the intracellular domains of human TIE2 (amino acids 762-1104, GenBank Accession # L06139) tagged by GST). The method measures the ability of the purified enzymes to catalyse the transfer of the γ-phosphate from ATP onto tyrosine residues in a biotinylated synthetic peptide, D1-15 (biotin-C6-LEARLVAYEGWVAGKKKamide). This peptide phosphorylation is detected using the following procedure: for enzyme preactivation, GST-TIE2 is incubated for 30 mins at room temperature with 2 mM ATP, 5 mM MgCl2 and 12.5 mM DTT in 22.5 mM HEPES buffer (pH7.4). Preactivated GST-TIE2 is incubated for 30 mins at room temperature in 96 well plates with 1 uM D1-15 peptide, 80 uM ATP, 10 mM MgCl2, 0.1 mg/ml BSA and the test compound (diluted from a 10 mM stock in DMSO, final DMSO concentration is 2.4%) in 1 mM HEPES (pH7.4). The reaction is stopped by the addition of EDTA (final concentration 45 mM). Streptavidin linked-APC (allophycocyanin, Molecular Probe) and Europium-labeled anti-phosphorylated tyrosine antibody (Wallac) are then added at the final concentration of 17 ug/well and 2.1 ug/well, respectively. The APC signal is measured using an ARVO multilabel counter. […] The percent inhibition of activity is calculated relative to blank control wells. […]

Question: `CC(C)(C)n1nc(-c2ccc(NC(=O)Nc3cc(C(F)(F)F)ccc3F)cc2)c(C(N)=O)c1N` [Example 1, 5-Amino-1-tert-butyl-3-{4-[3-(2-fluoro-5-trifluoromethyl-phenyl)-ureido]-phenyl}-1H-pyrazole-4-carboxylic acid amide] was tested. Which IC50 [1] did it give?
Answer: Its IC50 is < 100 nM.

Question: What about the IC50 (Recombinant GST-Tie2) of the same compound?
Answer: Its IC50 is < 100 nM.

Question: Which IC50 (GST-VEGFR2; read-out: VEGFR-2-E2 pIC50 (converted)) does the source give for `CC(C)(C)c1cc(NC(=O)Nc2ccc(-c3nn(C(C)(C)C)c(N)c3C(N)=O)cc2)no1` [Example 35, 5-Amino-1-tert-butyl-3-{4-[3-(5-tert-butyl-isoxazol-3-yl)-ureido]-phenyl}-1H-pyrazole-4-carboxylic acid amide] here?
Answer: The IC50 was < 100 nM.

Question: And the IC50 ([2]; read-out: VEGFR-3-HTRF pIC50 (converted))?
Answer: The IC50 was < 100 nM.

Question: What about the IC50 ([3]; read-out: TIE-2-E2 pIC50 (converted)) of the same compound?
Answer: Its IC50 is < 100 nM.

Question: Which “VEGFR-2-E2 pIC50” value (GST-VEGFR2) does the source give for “N,N-Dimethylamino-{4-[3-(fluoro-trifluoromethyl-phenyl)-ureido]-phenyl}-methyl-1H-pyrazole-4-carboxylic acid amide [Example 34]” here?
Answer: The value was “+ (+ = pIC50 of 5.0-6.0)”.

Question: And the “VEGFR-3-HTRF pIC50” value [2]?
Answer: Its value is “+ (+ = pIC50 of 5.0-6.0)”.

Question: And the “TIE-2-E2 pIC50” value [3]?
Answer: The value was “+++ (+++ = pIC50 > 7.0)”.
